# ± gives the expanded uncertainty stated by the source.
# Assay: xn = mol fraction of the nth substance listed
# Conditions: 101 kPa, Liquid
smiles,measurement,setting,value
CCOCCCN [3-ethoxy-1-propanamine] + O,mass density,"293.15 K, x1 = 0.2438",944.543 ± 0.44 kg/m3
same,mass density,"293.15 K, x1 = 0.2923",935.456 ± 0.47 kg/m3
same,mass density,"293.15 K, x1 = 0.361",922.252 ± 0.51 kg/m3
same,mass density,"293.15 K, x1 = 0.4369",911.545 ± 0.56 kg/m3
same,mass density,"293.15 K, x1 = 0.4937",902.62 ± 0.59 kg/m3
same,mass density,"293.15 K, x1 = 0.5513",895.311 ± 0.62 kg/m3
same,mass density,"293.15 K, x1 = 0.6214",887.472 ± 0.66 kg/m3
same,mass density,"293.15 K, x1 = 0.6775",881.634 ± 0.69 kg/m3
same,mass density,"293.15 K, x1 = 0.6943",880.062 ± 0.7 kg/m3
same,mass density,"293.15 K, x1 = 0.7458",875.436 ± 0.72 kg/m3
same,mass density,"293.15 K, x1 = 0.7733",873.142 ± 0.73 kg/m3
same,mass density,"293.15 K, x1 = 0.7947",871.067 ± 0.75 kg/m3
same,mass density,"293.15 K, x1 = 0.8276",868.648 ± 0.76 kg/m3
same,mass density,"293.15 K, x1 = 0.8744",864.922 ± 0.78 kg/m3
same,mass density,"293.15 K, x1 = 0.8993",862.73 ± 0.8 kg/m3
same,mass density,"293.15 K, x1 = 0.9189",861.498 ± 0.81 kg/m3
same,mass density,"293.15 K, x1 = 0.9411",859.742 ± 0.82 kg/m3
same,mass density,"293.15 K, x1 = 0.9486",859.29 ± 0.82 kg/m3
same,mass density,"293.15 K, x1 = 0.9613",858.247 ± 0.83 kg/m3
same,mass density,"293.15 K, x1 = 0.9746",857.315 ± 0.83 kg/m3
same,mass density,"293.15 K, x1 = 0.9871",856.398 ± 0.84 kg/m3
same,mass density,"293.15 K, x1 = 1",855.715 ± 0.84 kg/m3
same,mass density,"298.15 K, x1 = 0.000108",997.018 ± 0.31 kg/m3
same,mass density,"298.15 K, x1 = 0.000319",996.937 ± 0.31 kg/m3
same,mass density,"298.15 K, x1 = 0.000625",996.811 ± 0.31 kg/m3
same,mass density,"298.15 K, x1 = 0.000942",996.67 ± 0.31 kg/m3
same,mass density,"298.15 K, x1 = 0.001284",996.533 ± 0.31 kg/m3
same,mass density,"298.15 K, x1 = 0.001947",996.269 ± 0.31 kg/m3
same,mass density,"298.15 K, x1 = 0.002912",995.851 ± 0.31 kg/m3
same,mass density,"298.15 K, x1 = 0.00392",995.45 ± 0.31 kg/m3
same,mass density,"298.15 K, x1 = 0.005098",995.024 ± 0.32 kg/m3
same,mass density,"298.15 K, x1 = 0.00981",993.348 ± 0.32 kg/m3
same,mass density,"298.15 K, x1 = 0.0148",991.824 ± 0.32 kg/m3
same,mass density,"298.15 K, x1 = 0.01956",990.53 ± 0.32 kg/m3
same,mass density,"298.15 K, x1 = 0.02832",988.433 ± 0.33 kg/m3
same,mass density,"298.15 K, x1 = 0.03914",986.207 ± 0.33 kg/m3
same,mass density,"298.15 K, x1 = 0.05082",983.995 ± 0.34 kg/m3
same,mass density,"298.15 K, x1 = 0.06674",980.975 ± 0.35 kg/m3
same,mass density,"298.15 K, x1 = 0.09536",975.145 ± 0.36 kg/m3
same,mass density,"298.15 K, x1 = 0.1209",969.369 ± 0.38 kg/m3
same,mass density,"298.15 K, x1 = 0.1452",963.561 ± 0.39 kg/m3
same,mass density,"298.15 K, x1 = 0.1844",954.192 ± 0.42 kg/m3
same,mass density,"298.15 K, x1 = 0.2121",947.02 ± 0.43 kg/m3
same,mass density,"298.15 K, x1 = 0.2438",940.074 ± 0.46 kg/m3
same,mass density,"298.15 K, x1 = 0.2923",930.954 ± 0.48 kg/m3
same,mass density,"298.15 K, x1 = 0.361",917.676 ± 0.53 kg/m3
same,mass density,"298.15 K, x1 = 0.4369",906.929 ± 0.57 kg/m3
same,mass density,"298.15 K, x1 = 0.4937",897.985 ± 0.61 kg/m3
same,mass density,"298.15 K, x1 = 0.5513",890.64 ± 0.64 kg/m3
same,mass density,"298.15 K, x1 = 0.6214",882.775 ± 0.68 kg/m3
same,mass density,"298.15 K, x1 = 0.6775",876.891 ± 0.7 kg/m3
same,mass density,"298.15 K, x1 = 0.6943",875.446 ± 0.71 kg/m3
same,mass density,"298.15 K, x1 = 0.7458",870.539 ± 0.74 kg/m3
same,mass density,"298.15 K, x1 = 0.7733",868.397 ± 0.75 kg/m3
same,mass density,"298.15 K, x1 = 0.7947",866.312 ± 0.76 kg/m3
same,mass density,"298.15 K, x1 = 0.8276",863.952 ± 0.78 kg/m3
same,mass density,"298.15 K, x1 = 0.8488",862.009 ± 0.79 kg/m3
same,mass density,"298.15 K, x1 = 0.8744",860.155 ± 0.8 kg/m3
same,mass density,"298.15 K, x1 = 0.8993",858.054 ± 0.81 kg/m3
same,mass density,"298.15 K, x1 = 0.9189",856.71 ± 0.82 kg/m3
same,mass density,"298.15 K, x1 = 0.9411",855.013 ± 0.83 kg/m3
same,mass density,"298.15 K, x1 = 0.9486",854.542 ± 0.83 kg/m3
same,mass density,"298.15 K, x1 = 0.9613",853.53 ± 0.84 kg/m3
same,mass density,"298.15 K, x1 = 0.9746",852.649 ± 0.85 kg/m3
same,mass density,"298.15 K, x1 = 0.9871",851.83 ± 0.85 kg/m3
same,mass density,"298.15 K, x1 = 1",851.018 ± 0.86 kg/m3
same,mass density,"303.15 K, x1 = 0.000108",995.609 ± 0.31 kg/m3
same,mass density,"303.15 K, x1 = 0.000319",995.522 ± 0.32 kg/m3
same,mass density,"303.15 K, x1 = 0.000625",995.392 ± 0.32 kg/m3
same,mass density,"303.15 K, x1 = 0.000942",995.256 ± 0.32 kg/m3
same,mass density,"303.15 K, x1 = 0.001284",995.106 ± 0.32 kg/m3
same,mass density,"303.15 K, x1 = 0.001947",994.822 ± 0.32 kg/m3
same,mass density,"303.15 K, x1 = 0.002912",994.409 ± 0.32 kg/m3
same,mass density,"303.15 K, x1 = 0.00392",993.991 ± 0.32 kg/m3
same,mass density,"303.15 K, x1 = 0.005098",993.55 ± 0.32 kg/m3
same,mass density,"303.15 K, x1 = 0.00981",991.796 ± 0.32 kg/m3
same,mass density,"303.15 K, x1 = 0.0148",990.144 ± 0.33 kg/m3
same,mass density,"303.15 K, x1 = 0.01956",988.708 ± 0.33 kg/m3
same,mass density,"303.15 K, x1 = 0.02832",986.387 ± 0.33 kg/m3
same,mass density,"303.15 K, x1 = 0.03914",983.868 ± 0.34 kg/m3
same,mass density,"303.15 K, x1 = 0.05082",981.31 ± 0.34 kg/m3
same,mass density,"303.15 K, x1 = 0.06674",977.903 ± 0.35 kg/m3
same,mass density,"303.15 K, x1 = 0.09536",971.645 ± 0.37 kg/m3
same,mass density,"303.15 K, x1 = 0.1209",965.331 ± 0.39 kg/m3
same,mass density,"303.15 K, x1 = 0.1452",959.341 ± 0.4 kg/m3
same,mass density,"303.15 K, x1 = 0.1844",949.751 ± 0.43 kg/m3
same,mass density,"303.15 K, x1 = 0.2121",942.563 ± 0.45 kg/m3
same,mass density,"303.15 K, x1 = 0.2438",935.55 ± 0.47 kg/m3
same,mass density,"303.15 K, x1 = 0.2923",926.38 ± 0.49 kg/m3
same,mass density,"303.15 K, x1 = 0.361",913.059 ± 0.54 kg/m3
same,mass density,"303.15 K, x1 = 0.4369",902.254 ± 0.58 kg/m3
same,mass density,"303.15 K, x1 = 0.4937",893.262 ± 0.62 kg/m3
same,mass density,"303.15 K, x1 = 0.5513",885.906 ± 0.65 kg/m3
same,mass density,"303.15 K, x1 = 0.6214",877.992 ± 0.69 kg/m3
same,mass density,"303.15 K, x1 = 0.6775",872.12 ± 0.72 kg/m3
same,mass density,"303.15 K, x1 = 0.6943",870.586 ± 0.73 kg/m3
same,mass density,"303.15 K, x1 = 0.7458",865.744 ± 0.75 kg/m3
same,mass density,"303.15 K, x1 = 0.7733",863.589 ± 0.76 kg/m3
same,mass density,"303.15 K, x1 = 0.7947",861.557 ± 0.77 kg/m3
same,mass density,"303.15 K, x1 = 0.8276",859.105 ± 0.79 kg/m3
same,mass density,"303.15 K, x1 = 0.8744",855.327 ± 0.81 kg/m3
same,mass density,"303.15 K, x1 = 0.8993",853.46 ± 0.82 kg/m3
same,mass density,"303.15 K, x1 = 0.9189",851.896 ± 0.83 kg/m3
same,mass density,"303.15 K, x1 = 0.9411",850.2 ± 0.84 kg/m3
same,mass density,"303.15 K, x1 = 0.9486",849.691 ± 0.85 kg/m3
same,mass density,"303.15 K, x1 = 0.9613",848.739 ± 0.85 kg/m3
same,mass density,"303.15 K, x1 = 0.9746",847.719 ± 0.86 kg/m3
same,mass density,"303.15 K, x1 = 0.9871",846.839 ± 0.87 kg/m3
same,mass density,"303.15 K, x1 = 1",846.075 ± 0.87 kg/m3

# — the NIST ThermoML archive (doi:10.1021/je3003578)
